The source made the active and inactive calls. No cut-off for these calls is given here.
How the values were obtained:
Rattus norvegicus [1] = experiment: Antiinflammatory activity in Albino Wistar rat assessed as inhibition of carrageenan-induced hind paw edema at 0.05 mmol/kg, po treated 1 hr before carrageenan challenge by plethysmometer analysis; assay type: functional, organism-based; settings: TDE = time-dependent effect
Rattus norvegicus [2] = experiment: Antiinflammatory activity against carrageenan-induced hind paw Albino Wistar rat model assessed as reduction in serum IL-1 beta level at 0.05 mmol/kg, po treated 1 hr before carrageenan challenge by ELISA; assay type: functional
Rattus norvegicus [3] = experiment: Antiinflammatory activity against carrageenan-induced hind paw Albino Wistar rat model assessed as reduction in serum TNF-alpha level at 0.05 mmol/kg, po treated 1 hr before carrageenan challenge by ELISA; assay type: functional
Rattus norvegicus [4] = experiment: Antiinflammatory activity against carrageenan-induced hind paw Albino Wistar rat model assessed as reduction in serum COX2 level at 0.05 mmol/kg, po treated 1 hr before carrageenan challenge by ELISA; assay type: functional
[5] = biological target: Prostaglandin G/H synthase 1 (Homo sapiens, UniProt P23219); experiment: Inhibition of COX-1 (unknown origin)
Chain of Prostaglandin G/H synthase 1 (P23219 whole entry): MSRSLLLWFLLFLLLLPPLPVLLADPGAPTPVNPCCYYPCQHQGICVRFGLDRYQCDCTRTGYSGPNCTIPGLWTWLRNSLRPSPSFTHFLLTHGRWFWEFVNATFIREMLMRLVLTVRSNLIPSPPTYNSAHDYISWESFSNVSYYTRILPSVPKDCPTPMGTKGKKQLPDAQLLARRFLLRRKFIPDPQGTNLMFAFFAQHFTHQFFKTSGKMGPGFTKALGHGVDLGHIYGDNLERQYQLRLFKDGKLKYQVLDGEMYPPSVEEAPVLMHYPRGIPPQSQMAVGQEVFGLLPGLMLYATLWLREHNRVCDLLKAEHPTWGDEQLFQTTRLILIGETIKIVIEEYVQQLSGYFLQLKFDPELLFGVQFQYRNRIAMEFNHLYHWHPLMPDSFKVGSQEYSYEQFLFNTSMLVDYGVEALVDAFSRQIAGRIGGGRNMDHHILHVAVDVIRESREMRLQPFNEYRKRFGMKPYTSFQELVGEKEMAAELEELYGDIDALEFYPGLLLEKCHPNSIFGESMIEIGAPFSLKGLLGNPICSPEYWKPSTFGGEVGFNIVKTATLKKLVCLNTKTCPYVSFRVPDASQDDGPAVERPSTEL

[6] = biological target: T1, Prostaglandin G/H synthase 2 (Homo sapiens, UniProt P35354); experiment: Inhibition of COX-2 (unknown origin)
T1 sequence (P35354 whole entry): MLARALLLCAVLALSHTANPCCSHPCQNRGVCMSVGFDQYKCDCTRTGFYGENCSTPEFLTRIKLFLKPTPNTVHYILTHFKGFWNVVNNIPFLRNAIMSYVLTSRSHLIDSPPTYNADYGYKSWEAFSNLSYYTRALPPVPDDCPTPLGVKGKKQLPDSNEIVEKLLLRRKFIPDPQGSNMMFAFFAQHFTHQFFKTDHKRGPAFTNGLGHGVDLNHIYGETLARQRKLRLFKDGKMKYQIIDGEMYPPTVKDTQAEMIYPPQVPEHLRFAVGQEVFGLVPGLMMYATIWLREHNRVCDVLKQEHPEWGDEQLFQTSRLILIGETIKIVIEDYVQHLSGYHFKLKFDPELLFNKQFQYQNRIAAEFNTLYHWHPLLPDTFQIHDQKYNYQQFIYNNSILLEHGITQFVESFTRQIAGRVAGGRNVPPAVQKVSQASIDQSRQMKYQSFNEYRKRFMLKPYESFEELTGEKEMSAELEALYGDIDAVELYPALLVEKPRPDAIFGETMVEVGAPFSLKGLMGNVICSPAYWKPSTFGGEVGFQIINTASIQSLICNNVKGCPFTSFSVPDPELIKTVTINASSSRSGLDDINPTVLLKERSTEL

Mus musculus = experiment: Antinociceptive activity in mouse assessed as inhibition of acetic acid-induced writhing at 0.05 mmol/kg, po administered 30 mins prior to acetic acid challenge measured for 20 mins after acetic acid injection; assay type: functional
Rattus norvegicus [7] = experiment: Ulcerogenicity in Albino Wistar rat assessed as gastric ulceration and rupture of gastric mucosal layer at 0.15 mmol/kg, po measured after 5 hrs; assay type: toxicity, organism-based, Gastric mucosa; settings: in vivo
Rattus norvegicus [8] = experiment: Antiinflammatory activity against carrageenan-induced hind paw Albino Wistar rat model assessed as reduction in nitric oxide level in hind paw at 0.05 mmol/kg, po treated 1 hr before carrageenan challenge by griess reagent based microplate reader analysis; assay type: functional, organism-based
Rattus norvegicus [9] = experiment: Antiinflammatory activity in Albino Wistar rat assessed as inhibition of carrageenan-induced hind paw edema at 0.05 mmol/kg, po treated 1 hr before carrageenan challenge measured 5 hrs post-carrageenan injection by plethysmometer analysis; assay type: functional
Rattus norvegicus [10] = experiment: Antiinflammatory activity in Albino Wistar rat assessed as inhibition of carrageenan-induced hind paw edema at 0.05 mmol/kg, po treated 1 hr before carrageenan challenge measured 3 hrs post-carrageenan injection by plethysmometer analysis; assay type: functional
HeLa = experiment: Decrease in COX-2 gene expression in human HeLa cells at 10 uM after 24 hrs by real time PCR analysis relative to celecoxib; assay type: functional
Rattus norvegicus [11] = experiment: Antiinflammatory activity against carrageenan-induced hind paw Albino Wistar rat model assessed as reduction in nitric oxide level in hind paw at 0.05 mmol/kg, po treated 1 hr before carrageenan challenge measured per mg of wet tissue by griess reagent based microplate reader analysis; assay type: functional
Rattus norvegicus [12] = experiment: Antioxidant activity in carrageenan-induced hind paw Albino Wistar rat model assessed as increase in GSH level in hind paw joint at 0.05 mmol/kg, po treated 1 hr before carrageenan challenge measured per gm of tissue by plate reader analysis (reference value: 0.58 +/-0.02 ug); assay type: functional
Rattus norvegicus [13] = experiment: Antioxidant activity in carrageenan-induced hind paw Albino Wistar rat model assessed as inhibition of lipid peroxidation by measuring TBARS level in hind paw at 0.05 mmol/kg, po treated 1 hr before carrageenan challenge by microplate reader analysis; assay type: functional

SMILES	IC50 [5]	IC50 [6]	inhibition (Rattus norvegicus [1])	inhibition (Rattus norvegicus [8])	further results
COc1ccc(-n2cc(CSc3nc4ccccc4o3)nn2)cc1	89.4 µM	2.3 µM	tde	Active	inhibition (Rattus norvegicus [2]): Active; Activity (Rattus norvegicus [3]): 3.1 pg/mL; Activity (Rattus norvegicus [4]): 6.54 nmol/min/mL; inhibition in vivo at 50 µmol/kg (Mus musculus): 55.5%; Activity (Rattus norvegicus [7]): Non-toxic
Cc1ccccc1-n1cc(CSc2nc3ccccc3o2)nn1	132 µM	4.68 µM	tde	Active	–
CCc1ccc(-n2cc(CSc3nc4ccccc4o3)nn2)cc1	246 µM	3.8 µM	tde	Active	inhibition in vivo at 50 µmol/kg (Rattus norvegicus [9]): 61.1%; inhibition in vivo at 50 µmol/kg (Rattus norvegicus [10]): 66.7%; inhibition (Rattus norvegicus [2]): Active; inhibition (Rattus norvegicus [3]): Active; inhibition (Rattus norvegicus [4]): Active; fold change (FC) (HeLa): 0.94; Activity (Rattus norvegicus [11]): 5.1 µmol; Activity (Rattus norvegicus [12]): 0.84 µg; Activity (Rattus norvegicus [7]): Non-toxic
Clc1ncccc1-n1cc(CSc2nc3ccccc3o2)nn1	103 µM	5.03 µM	tde	Active	–
CCOc1ccc(-n2cc(CSc3nc4ccccc4o3)nn2)cc1	163 µM	3.5 µM	tde	Active	Activity (Rattus norvegicus [2]): 2.66 pg/mL; inhibition (Rattus norvegicus [3]): Active; inhibition (Rattus norvegicus [4]): Active; Activity (Rattus norvegicus [12]): 0.84 µg; Activity (Rattus norvegicus [13]): 5.1 nmol; Activity (Rattus norvegicus [7]): Non-toxic
O=[N+]([O-])c1ccc(-n2cc(CSc3nc4ccccc4o3)nn2)cc1	115 µM	9.87 µM	tde	Active	–
CC(C)(C)c1ccc(-n2cc(CSc3nc4ccccc4o3)nn2)cc1	154 µM	3.85 µM	tde	Active	–
Cc1ccc(-c2cc(C(F)(F)F)nn2-c2ccc(S(N)(=O)=O)cc2)cc1 [CELECOXIB]	–	–	–	Active	inhibition in vivo at 50 µmol/kg (Rattus norvegicus [9]): 65.5%; inhibition in vivo at 50 µmol/kg (Rattus norvegicus [10]): 72.2%; Activity (Rattus norvegicus [2]): 2.9 pg/mL; Activity (Rattus norvegicus [3]): 3.35 pg/mL; Activity (Rattus norvegicus [4]): 7.9 nmol/min/mL; Activity (Rattus norvegicus [11]): 5.5 µmol; Activity (Rattus norvegicus [12]): 0.81 µg; Activity (Rattus norvegicus [13]): 6.3 nmol; inhibition in vivo at 50 µmol/kg (Mus musculus): 70.9%

More lines, main results first:

IC50 [5]	IC50 [6]	SMILES	inhibition (Rattus norvegicus [1])	inhibition (Rattus norvegicus [8])	further results
107 µM	6.42 µM	c1ccc(-n2cc(CSc3nc4ccccc4o3)nn2)cc1	tde	Active	–
96.6 µM	3.98 µM	c1cncc(-n2cc(CSc3nc4ccccc4o3)nn2)c1	tde	Active	–
192 µM	5.21 µM	Fc1ccc(-n2cc(CSc3nc4ccccc4o3)nn2)cc1	tde	Active	–
88.3 µM	4.63 µM	Clc1cccc(-n2cc(CSc3nc4ccccc4o3)nn2)c1	tde	Active	–
140 µM	4.35 µM	Cc1ccc(-n2cc(CSc3nc4ccccc4o3)nn2)cc1C	tde	Active	–
38.4 µM	2.75 µM	Brc1ccccc1-n1cc(CSc2nc3ccccc3o2)nn1	tde	Active	–
104 µM	9.58 µM	O=[N+]([O-])c1cccc(-n2cc(CSc3nc4ccccc4o3)nn2)c1	tde	Active	–
24.2 µM	2.4 µM	Fc1ccccc1-n1cc(CSc2nc3ccccc3o2)nn1	tde	Active	–
80.8 µM	1.9 µM	Clc1ccc(-n2cc(CSc3nc4ccccc4o3)nn2)cc1	tde	Active	inhibition in vivo at 50 µmol/kg (Rattus norvegicus [9]): 55.5%; inhibition in vivo at 50 µmol/kg (Rattus norvegicus [10]): 68.9%; inhibition (Rattus norvegicus [2]): Active; inhibition (Rattus norvegicus [3]): Active; inhibition (Rattus norvegicus [4]): Active; inhibition in vivo at 50 µmol/kg (Mus musculus): 51.5%; Activity (Rattus norvegicus [7]): Non-toxic
186 µM	2.8 µM	Brc1ccc(-n2cc(CSc3nc4ccccc4o3)nn2)cc1	tde	Active	inhibition (Rattus norvegicus [2]): Active; inhibition (Rattus norvegicus [3]): Active; inhibition (Rattus norvegicus [4]): Active; fold change (FC) (HeLa): 0.79; Activity (Rattus norvegicus [7]): Non-toxic
44.4 µM	3.53 µM	Clc1ccccc1-n1cc(CSc2nc3ccccc3o2)nn1	tde	Active	–

From ChEMBL document CHEMBL3259784, “Synthesis of novel 2-mercaptobenzoxazole based 1,2,3-triazoles as inhibitors of proinflammatory cytokines and suppressors of COX-2 gene expression” (Eur J Med Chem, 2014)
